Data as given in patent US10072017B2, “Compounds and methods for the treatment of cystic fibrosis” (Flatley Discovery Lab, LLC, priority 2015, dated 2018).

Biological target: T1, CFTR (Homo sapiens, UniProt P13569, DEL508-508)
T1 construct: Primary CF airway epithelial cells were obtained from the UNC Cystic Fibrosis Tissue Procurement and Cell Culture Core; host or cells: primary CF airway epithelial cells
Assay: Equivalent current assay in Primary CF airway epithelial cells (NAUC)
Type: cell-based
Settings: 24 h, normalized to VX809 (3 μM) positive control; for Nauc @ 3 μM: 3 μM test compound; for Nauc @ 10 μM: 10 μM test compound
Method: Primary CF airway epithelial cells were obtained from the UNC Cystic Fibrosis Tissue Procurement and Cell Culture Core. The cells are grown at 37° C. in a Heracell 150i incubator using growth media (BEGM, Fischer). Cells were then transferred to differentiation media (ALI, UNC) for a minimum of 4 weeks on coated Costar snapwells. Two days before the Ussing assay the mucus on the apical surface of the cells was aspirated after incubating with 200 μL of differentiation Media for at least thirty (30) minutes. One day before the Ussing assay test compounds were added to the basolateral surface of the cells at various test concentrations dissolved in DMSO. Duplicate wells were prepared giving a n=3 or n=4 protocol.
Cells were treated for 24 hours with various combinations and concentrations of the test articles, reference standard (3 μM VX809, positive control). Compounds stock solutions were prepared in DMSO and diluted 1/1000 into ALI media to their final assay concentration. Cells were treated with combination solutions (2 mL of each dilution) and incubated at 37° C. for 24 h.
For the equivalent current assay, cells on four Transwell (24-well) plates were treated. Each Transwell plate was filled with 200 μl of HBS on the apical surface and 2 ml on the basolateral surface. Plates were placed horizontally in a heated mount at 37° C., and equilibrated for several minutes. Resting current was measured for 15 min and then blocked by the apical addition of 5 μM benzamil. After 20 min, 10 μM forskolin and 1 μM VX770 were added to both the apical and basolateral side to stimulate CFTR. An increase in chloride current is seen as an upward deflection of the trace. After another 30 min, CFTR-172 (a CFTR inhibitor, 20 μM) and/or bumetanide (20 uM) was added to block CFTR mediated chloride current.
The raw data, current vs. time for the Ussing chamber (sampling interval: 10 s) and voltage vs. time and resistance vs. time for the equivalent current assay (sampling interval: 5 minutes) were transferred to Excel (Microsoft Office Professional, version 14.0.7106.5003) for analysis. CFTR specific current was measured as the average amplitude of the increase in current elicited upon addition forskolin and ending upon addition of the CFTR channel specific blocker CFTR-172. This average is equivalent to the sum of the average forskolin activated and the average VX770-potentiated currents. The average current measured in vehicle (0.1% DMSO) treated cells, Iv, was subtracted from the current for the test article, ITA, or from the corrector reference standard VX809 (3 uM ISTD. For replicate measurements, the average vehicle subtracted response for the test article, was normalized to the average vehicle subtracted inhibitor response of the reference corrector VX809 (3 μM). INSC=(ITA−IV)(ave)/(ISTD−IV)(ave) (Equation 1)
A second endpoint, for the equivalent current assay, evaluated was NAUC, the normalized area under the curve (AUC) measuring the response after addition of forskolin and VX770 to the time point right before the addition of the CFTR inhibitor. The AUC is effectively the average response multiplied by the duration of the response. The AUC of the test article, AUCTA was then corrected by subtracting the average vehicle response, AUCV,ave over the same time range, and normalized as for the inhibitor-sensitive current to the difference of the corrector reference standard VX809 (3 μM VX809r,ave and the vehicle response: NAUCTA=[AUCTA−AUCV,ave]/[AUCVx809r,ave−AUCV,ave] (Equation 2).
The normalized value for DMSO is 0.0 and for VX-809 alone is 1.0. Combinations of compounds with VX-809 that give normalized values greater than 1.0 show activity in the combination assay. A value of 2 means the test compound doubles the effect to VX-809 alone.
Experiments were run with a minimum of n=4 replicates per concentration. […]

T1 sequence (P13569 with tags, fused parts or gaps DEL508-508): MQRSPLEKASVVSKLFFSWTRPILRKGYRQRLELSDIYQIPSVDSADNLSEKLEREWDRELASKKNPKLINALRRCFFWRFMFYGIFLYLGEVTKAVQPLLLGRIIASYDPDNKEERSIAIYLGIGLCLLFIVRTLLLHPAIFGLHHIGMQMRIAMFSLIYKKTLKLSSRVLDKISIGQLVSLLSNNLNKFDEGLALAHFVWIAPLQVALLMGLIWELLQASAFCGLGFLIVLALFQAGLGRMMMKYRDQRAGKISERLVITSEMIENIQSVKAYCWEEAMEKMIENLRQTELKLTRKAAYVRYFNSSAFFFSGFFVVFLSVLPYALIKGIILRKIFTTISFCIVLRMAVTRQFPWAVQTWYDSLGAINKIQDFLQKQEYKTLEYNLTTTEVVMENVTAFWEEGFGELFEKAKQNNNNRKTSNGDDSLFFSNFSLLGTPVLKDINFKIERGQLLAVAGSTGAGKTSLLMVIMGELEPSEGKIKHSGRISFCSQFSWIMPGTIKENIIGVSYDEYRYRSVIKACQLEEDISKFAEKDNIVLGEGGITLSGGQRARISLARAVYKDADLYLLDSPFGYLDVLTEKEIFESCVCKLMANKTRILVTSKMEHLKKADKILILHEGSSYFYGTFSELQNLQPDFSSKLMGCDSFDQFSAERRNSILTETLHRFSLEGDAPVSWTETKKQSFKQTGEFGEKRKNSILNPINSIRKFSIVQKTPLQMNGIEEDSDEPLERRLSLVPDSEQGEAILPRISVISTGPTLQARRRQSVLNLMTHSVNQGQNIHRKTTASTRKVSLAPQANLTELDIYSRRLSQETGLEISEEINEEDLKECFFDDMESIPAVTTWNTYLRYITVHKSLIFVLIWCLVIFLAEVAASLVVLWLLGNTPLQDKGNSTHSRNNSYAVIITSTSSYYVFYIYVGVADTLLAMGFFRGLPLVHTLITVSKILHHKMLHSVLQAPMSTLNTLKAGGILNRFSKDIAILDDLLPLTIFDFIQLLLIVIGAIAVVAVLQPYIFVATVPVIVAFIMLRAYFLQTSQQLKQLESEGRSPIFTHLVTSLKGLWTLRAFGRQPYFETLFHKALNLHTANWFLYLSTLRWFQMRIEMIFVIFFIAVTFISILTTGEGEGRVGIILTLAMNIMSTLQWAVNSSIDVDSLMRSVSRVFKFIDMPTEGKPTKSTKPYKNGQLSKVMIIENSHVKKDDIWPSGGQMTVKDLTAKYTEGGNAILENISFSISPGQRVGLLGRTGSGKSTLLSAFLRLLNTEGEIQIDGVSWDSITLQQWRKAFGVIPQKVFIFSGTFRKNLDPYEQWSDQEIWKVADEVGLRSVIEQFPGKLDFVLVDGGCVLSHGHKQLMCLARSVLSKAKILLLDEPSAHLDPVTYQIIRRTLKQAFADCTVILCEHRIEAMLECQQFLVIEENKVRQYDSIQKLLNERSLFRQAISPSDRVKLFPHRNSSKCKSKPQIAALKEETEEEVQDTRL

Structure (SMILES)	Nauc @ 3 μM	Nauc @ 10 μM
COc1c(Cl)cc(N2C(=O)C3C4CC(C)(C)CN4C4(C(=O)Nc5c(Cl)cc(Cl)cc54)C3C2=O)cc1Cl (single isomer, unassigned) [Example 140]	+++ (NAUC “+++” refers to an observed NAUC >170% of positive control)	+++ (NAUC “+++” refers to an observed NAUC >170% of positive control)
O=C1C2C3CCCN3C3(C(=O)Nc4c(F)cc(Cl)cc43)C2C(=O)N1c1cc(F)cc(Cl)c1 (stereo not shown) [Example 37]	+ (NAUC “+” refers to an observed NAUC <140% of positive control)	++ (NAUC “++” refers to an observed NAUC 170-140% of positive control)
O=C1C2C3C[C@H](O)CN3C3(C(=O)Nc4c(Cl)cc(Cl)cc43)C2C(=O)N1c1cc(Cl)cc(Cl)n1 (stereo partly shown) [Example 59]	+ (NAUC “+” refers to an observed NAUC <140% of positive control)	+++ (NAUC “+++” refers to an observed NAUC >170% of positive control)
COc1c(Cl)cc(N2C(=O)C3C4CC(C)(C)CN4C4(C(=O)Nc5c(Cl)cc(Cl)cc54)C3C2=O)cc1Cl (single isomer, unassigned) [Example 141]	+ (NAUC “+” refers to an observed NAUC <140% of positive control)	++ (NAUC “++” refers to an observed NAUC 170-140% of positive control)
C=C1CC2C3C(=O)N(c4cc(Cl)cc(Cl)c4)C(=O)C3C3(C(=O)Nc4c(Cl)cc(Cl)cc43)N2C1 (stereo not shown) [Example 55]	+ (NAUC “+” refers to an observed NAUC <140% of positive control)	+++ (NAUC “+++” refers to an observed NAUC >170% of positive control)
O=C1C2C3C[C@H](O)CN3C3(C(=O)Nc4c(Cl)cc(Cl)cc43)C2C(=O)N1c1cc(Cl)c(O)c(Cl)c1 (stereo partly shown) [Example 82]	+ (NAUC “+” refers to an observed NAUC <140% of positive control)	++ (NAUC “++” refers to an observed NAUC 170-140% of positive control)
O=C1C2C3CC(C(F)F)CN3C3(C(=O)Nc4c(Cl)cc(Cl)cc43)C2C(=O)N1c1cc(F)cc(Cl)c1 (stereo not shown) [Example 133]	++ (NAUC “++” refers to an observed NAUC 170-140% of positive control)	++ (NAUC “++” refers to an observed NAUC 170-140% of positive control)
O=C1C2C3C[C@H](F)CN3C3(C(=O)Nc4c(Cl)cc(Cl)cc43)C2C(=O)N1c1cc(O)cc(Cl)c1 (stereo partly shown) [Example 80]	++ (NAUC “++” refers to an observed NAUC 170-140% of positive control)	++ (NAUC “++” refers to an observed NAUC 170-140% of positive control)
O=C1C2C3C4OC4CN3C3(C(=O)Nc4c(Cl)cc(Cl)cc43)C2C(=O)N1c1cc(Cl)cc(Cl)c1 (stereo not shown) [Example 94]	++ (NAUC “++” refers to an observed NAUC 170-140% of positive control)	+++ (NAUC “+++” refers to an observed NAUC >170% of positive control)
N#Cc1ccccc1CC1NC2(C(=O)Nc3c(Cl)cc(Cl)cc32)C2C(=O)N(c3cc(Cl)cc(Cl)c3)C(=O)C12 (stereo not shown) [Example 186]	+ (NAUC “+” refers to an observed NAUC <140% of positive control)	+++ (NAUC “+++” refers to an observed NAUC >170% of positive control)
Cc1ccc(CC2NC3(C(=O)Nc4c(Cl)cc(Cl)cc43)C3C(=O)N(c4cc(Cl)cc(Cl)c4)C(=O)C23)cc1 (stereo not shown) [Example 195]	+ (NAUC “+” refers to an observed NAUC <140% of positive control)	++ (NAUC “++” refers to an observed NAUC 170-140% of positive control)
CC1(C)CC2C3C(=O)N(c4cc(Cl)cc(Cl)n4)C(=O)C3C3(C(=O)Nc4c(Cl)cc(Cl)cc43)N2C1 (stereo not shown) [Example 176]	++ (NAUC “++” refers to an observed NAUC 170-140% of positive control)	++ (NAUC “++” refers to an observed NAUC 170-140% of positive control)
O=C1C2C3CCCN3C3(C(=O)Nc4c(Cl)cc(Cl)cc43)C2C(=O)N1c1cc(Cl)cc(Cl)n1 (single isomer, unassigned) [Example 3, 5,7-Dichloro-2′-(4,6-dichloropyridin-2-yl)-3a′,6′,7′,8′,8a′,8b′-hexahydro-1′H-spiro[indoline-3,4′-pyrrolo[3,4-a]pyrrolizine]-1′,2,3′(2′H)-trione]	+++ (NAUC “+++” refers to an observed NAUC >170% of positive control)	+++ (NAUC “+++” refers to an observed NAUC >170% of positive control)
COc1cc(Cl)cc(N2C(=O)C3C4CCCN4C4(C(=O)Nc5c(Cl)cc(Cl)cc54)C3C2=O)c1 (single isomer, unassigned) [Example 105]	++ (NAUC “++” refers to an observed NAUC 170-140% of positive control)	++ (NAUC “++” refers to an observed NAUC 170-140% of positive control)
[2H]C([2H])([2H])C1(C([2H])([2H])[2H])CC2C3C(=O)N(c4cc(Cl)cc(Cl)c4)C(=O)C3C3(C(=O)Nc4c(Cl)cc(Cl)cc43)N2C1 (stereo not shown) [Example 185]	+++ (NAUC “+++” refers to an observed NAUC >170% of positive control)	+++ (NAUC “+++” refers to an observed NAUC >170% of positive control)
O=C1C2C(C(=O)N1c1cc(Cl)cc(Cl)c1)C1(NC23CC3)C(=O)Nc2c(Cl)cc(Cl)cc21 (stereo not shown) [Example 210]	+ (NAUC “+” refers to an observed NAUC <140% of positive control)	++ (NAUC “++” refers to an observed NAUC 170-140% of positive control)
C[C@]1(O)CC2C3C(=O)N(c4ccon4)C(=O)C3C3(C(=O)Nc4c(Cl)cc(Cl)cc43)N2C1 (stereo partly shown) [Example 234]	+ (NAUC “+” refers to an observed NAUC <140% of positive control)	++ (NAUC “++” refers to an observed NAUC 170-140% of positive control)
O=C1C2C3CCCN3C3(C(=O)Nc4c(Cl)cc(Cl)cc43)C2C(=O)N1c1cc(Cl)cc(Br)c1 (stereo not shown) [Example 35]	+ (NAUC “+” refers to an observed NAUC <140% of positive control)	+++ (NAUC “+++” refers to an observed NAUC >170% of positive control)
COc1c(Cl)cc(N2C(=O)C3C4CC5(CC5)CN4C4(C(=O)Nc5c(Cl)cc(Cl)cc54)C3C2=O)cc1Cl (stereo not shown) [Example 177]	++ (NAUC “++” refers to an observed NAUC 170-140% of positive control)	+++ (NAUC “+++” refers to an observed NAUC >170% of positive control)
COc1c(Cl)cc(N2C(=O)C3C4C[C@H](Cl)CN4C4(C(=O)Nc5c(Cl)cc(Cl)cc54)C3C2=O)cc1Cl (stereo partly shown) [Example 79]	+++ (NAUC “+++” refers to an observed NAUC >170% of positive control)	+++ (NAUC “+++” refers to an observed NAUC >170% of positive control)
O=C1C2C3CC(=C(F)F)CN3C3(C(=O)Nc4c(Cl)cc(Cl)cc43)C2C(=O)N1c1cc(C(F)(F)F)cc(C(F)(F)F)c1 (stereo not shown) [Example 125]	+++ (NAUC “+++” refers to an observed NAUC >170% of positive control)	+ (NAUC “+” refers to an observed NAUC <140% of positive control)
COc1cccc(N2C(=O)C3C4CCCN4C4(C(=O)Nc5c(Cl)cc(Cl)cc54)C3C2=O)c1 (stereo not shown) [Example 97]	+ (NAUC “+” refers to an observed NAUC <140% of positive control)	++ (NAUC “++” refers to an observed NAUC 170-140% of positive control)
O=C1C2C3C[C@H](F)CN3C3(C(=O)Nc4c(Cl)cc(Cl)cc43)C2C(=O)N1c1cc(Cl)cc(Cl)c1O (stereo partly shown) [Example 95]	++ (NAUC “++” refers to an observed NAUC 170-140% of positive control)	+ (NAUC “+” refers to an observed NAUC <140% of positive control)
